Assay results: patent US20150297694A1, “CANCER DIAGNOSTIC AND THERAPEUTIC METHOD TARGETING MOLECULES EXPRESSED IN CANCER STEM CELLS” (NIIGATA UNIVERSITY, priority 2012, published 2015)

System: PBMC of healthy volunteers (HLA-A*0201 or HLA-A*2601)
Test: IFN-γ production (ELISA) by DDX3X-derived peptide stimulation of peptide-induced CTL from PBMC
Format: cell-based, human
Conditions: peptide 20 μg/mL, 24 hours
Procedure: PBMC (1.5×10^7 cells) were inoculated in a 24-well plate in 1.5×10^6 cells/well (Day 0). Then, three types of DDX3X-derived peptides (final concentration 20 μg/mL each), and IL-7 (final concentration 10 ng/mL) were added to each well, and the cells were cultured at 37° C. in 5% CO2.
The cells were re-stimulated after 1 week (Day 7). For re-stimulation, the PBMC cryopreserved as antigen-presenting cells in Day 0 were thawed, and the three types of DDX3X-derived peptides (final concentration 20 μg/mL each) were added and conjugated at 37° C. for 2 hours after adjusting the cells to 3×10^6 cells/mL or less. This was followed by addition of a mitomycin C [Kyowa Hakko Kirin] solution to make the final concentration 50 μg/mL, and the cells were treated at 37° C. for 45 min. The cells were washed twice with AIM-V, and resuspended in medium to obtain an antigen-presenting cell suspension. After harvesting cells cultured for 1 week, the cells were inoculated in a 24-well plate in 1.2×10^6 cells/well, and the antigen-presenting cell suspension was inoculated with the same number of cells. Finally, IL-7 was added at 10 ng/ml, and the cells were cultured at 37° C. in 5% CO2. After 2 days (Day 9), half of the culture medium was gently removed from each well, and replaced with 40 U/mL of IL-2-containing medium for further culture. The half-volume replacement of the culture medium with 20 U/mL of IL-2-containing medium was repeated in the same fashion every other day (Day 11, Day 13). Re-stimulation was repeated in Day 14 and Day 21 using the same procedure. […]
Twenty-four hours after peptide stimulation, the culture supernatant was gently collected from each well. IFN-γ concentration in each culture supernatant was detected by ELISA, by using an ELISA reagent set (BD OptEIA ELISA set (human IFN-7)(trade name)) according to the manufacturer's protocol after modification. […] Measurements were made with a visible wavelength absorbance microplate reader (VERSAmax(trade name); Molecular Device).

Sequence | samples showing IFN-γ production (Day 28, samples with A*2601) | samples showing IFN-γ production (Day 21, samples with A*2601) | samples showing IFN-γ production (Day 28, samples with A*0201)
FVETKKGADSLEDFLYHEGY (listed as Homo sapiens) [DDX3X-20 mer] | one of the five |  | 
LEDFLYHEGY (listed as Homo sapiens) [DDX3X-10 mer] |  | two of the five | one of the six
